The values that follow come from publication PMC7566913, “Dual Gene Delivery Reagents From Antiproliferative Alkylphospholipids for Combined Antitumor Therapy” (Frontiers in Chemistry, 2020).

The nature of data set [1]: Hydrolytic stability of the APL prodrugs monitored by 31P-NMR. Format: physicochemical. An excerpt: Aqueous formulation of the APL prodrugs produces nanosized lipid aggregates that most likely enter cells through the endocytosis pathway. To produce the expected intrinsic antineoplastic effect, APL-derived phosphotriesters need to be processed into the bioactive parent APLs. The hydrolysis of the prodrugs may be under the control of a chemical stimulus, e.g., a pH decrease as observed during the maturation of endosomes, or of degradation enzymes that massively enter the endosome compartment when continuing to lysosomes. To get some information on the transformation of pro-APLs into APLs, we monitored the hydrolysis of these compounds over time, at pH 7.4 and 4.5, conditions that mimick the extracellular milieu and the environment of the late endosome, respectively. This monitoring was realized using ^31P-NMR spectroscopy, according to a previously reported method (Pierrat et al., [2013b]). Whatever the compound investigated, only one single ^31P resonance did appear during the course of the experiments, corresponding to that of the parent APL. This confirmed that hydrolysis of the pro-APLs selectively occurred at the acetal center. […] As a general trend, hydrolysis of the pro-APLs was […] under neutral conditions (i.e., pH 7.4) than under acidic ones (i.e., pH 4.5). […] Besides, substitution of one hydrogen atom with a methyl group on the acetal bridge accelerated the rate of hydrolysis of the prodrugs. […] Indeed, in biological media, the enzyme-mediated hydrolysis of such compounds can proceed far quicker than “simple” chemical hydrolysis under pH control (Pierrat et al., [2012]). […]

Data set [2] in a line: CMC/CAC by pyrene fluorescent probe technique in ultrapure water. Type of data set: physicochemical. The following applies: pyrene fluorescence. On the procedure:
The pro-APL molecules have been specifically engineered so they can be metabolized in situ under a biological stimulus to revert to the parent APL with antiproliferative activity. […] We thus aimed to determine the self-assembly properties of the APL prodrugs. […] Pyrene is a probe which fluorescence is sensitive to the polarity of the solubilizing medium. […] Fluorescence measurements were carried out in ultrapure water and data obtained for the various APLs and their prodrugs are shown in Table 2.
Pro-APLs Self-Assembly Properties
Starting from a lipid film, compounds were […]

The subject of data set [3] is A549 cells. Nature of the data set: Cytotoxicity, MTT assay, A549. Type of data set: cell-based, human. The following applies: A549, 24 h at 37°C. On the procedure:
(§1) The cells were exposed for a 24-h period to increasing concentration of the pro-APLs, ranging from 500 nM to 1 mM, and cell viability was assessed using the MTT colorimetric assay (Mosmann, [1983]). For the three cell lines, viability decreased in a dose-dependent manner in response to APLs and pro-APLs (Supplementary Figures 2–4). Using the best-fit regression curve method, the IC50 value (concentration that provokes 50% inhibition of the cell growth) was calculated for each compound (Table 4). The three cell lines responded to the compounds with varying sensitivities. […] This is attributed to enzyme-mediated hydrolysis of the pro-APL compounds in the complemented culture medium or in the intracellular compartment, competing with pure pH-controlled chemical hydrolysis. According to its structure, a pro-APL may or not be a substrate for specific lipases and, thus, may or not be hydrolyzed into the parent cytotoxic compound. […]
(§2) At confluency, cells were released […]
(§3) Cells were seeded into 96-well plates (Becton-Dickinson) at the required density (vide supra) in 100 µL of serum containing culture medium. […]
(§4) Mitochondrial activity measurements (MTT assay) was used to assess cytotoxicity of the compounds.
(§5) Lipid samples were prepared from a lipid film (3.6 µmol of compound evaporated from an ethanolic solution) hydrated with aqueous glucose 5 % and vigorously vortexed for 20 s before serial dilution in aqueous glucose 5 %. For addition of lipid samples to cell culture, part of the culture medium in the culture plates prepared the day before (25 µL) was removed and replaced by lipid samples (25 µL). Negative control was obtained by adding glucose 5 % to the cells instead of lipoplexes.
(§6) After a 24-h incubation period at 37 °C, culture supernatant was removed, cells were carefully washed with PBS and MTT (100 µL, 0.5 mg/mL) in complete culture medium was added. After a 1-h incubation period at 37 °C, the MTT sol ution was removed and DMSO (100 µL) was added to lyse cells and dissolve reduced MTT. Intensity of MTT reduction was then evaluated by measuring absorbance at 492 nm. Viability of cells treated with lipids or lipoplexes was expressed as the percentage of the absorbance measured in untreated cells. Value for each sample is the mean of triplicate determinations (± SD). IC50 values were determined within the 95 % confidence interval using nonlinear regression analysis with the GraphPad Prism software (GraphPad Software, San […]
(§7) All data are representative of a triplicate determination and are presented as the mean ± SD.
(§8) Statistical significance between treatments was assessed by one-way analysis of variance (ANOVA) followed by the Dunnett multiple comparison test, using the Kaleidagraph 4.5 software (Synergy Software, Reading, PA, USA). Data were considered as statistically significant for p value less than
(In general: Tetrazolium dyes change colour on reduction, which living cells bring about.)

In another data set the test system is H292 cells. Nature of the data set: Cytotoxicity, MTT assay, H292. Type of data set: cell-based, human. On the procedure:
as §1, §2, §3, §4, §5, §6, §7, §8

In another data set the test system is 16HBE cells. Nature of the data set: Cytotoxicity, MTT assay, 16HBE. Format: cell-based, human. The following applies: 24 h at 37°C. On the procedure:
as §1, §2, §3, §4, §5, §6, §7, §8

Data set [4] in a line: Particle size and zeta potential of lipoplexes by DLS. Format: physicochemical. The following applies: lipoplexes with pCMV-Gluc, 25 °C, 5 % glucose, N/P 3, 1 molar equivalent of DOPE. An excerpt:
The capacity of the pro-APLs to interact electrostatically with nucleic acids and form lipoplexes was checked by standard agarose gel electrophoresis. […] The size (hydrodynamic diameter) and charge (zeta potential, ζ) of the lipoplexes prepared at an N/P ratio of 3 with one molar equivalent of dioleoyl-sn-glycero-3-phosphatidylethanolamine (DOPE), a lipid with fusogenic properties (Hui et al., [1996]; Zuhorn et al., [2005]), were investigated by DLS (Supplementary Table 1).
as measured by DLS. Lipoplexes were prepared at 25 °C, in 5 % glucose, at a N/P ratio of 3 and with
1 molar equivalent of DOPE.
(Gaillard et al., 2019). Data are the mean of three independent measurements (± SD).

For data set [5], the system named is A549 cells. Nature of the data set: Gene transfer efficiency, pCMV-Gluc luciferase reporter gene assay. Format: cell-based, human. A general note: Reporter assays use an easily measured gene product as a stand-in for the process of interest.
From the text: The efficacy of the pro-APLs to mediate intracellular delivery of a plasmid DNA was examined in A549 human lung epithelial carcinoma cells using the pCMV-Gluc reporter gene encoding the luciferase of Gaussia princeps. This luciferase is secreted by cells and transgene expression can be conveniently assessed by standard bioluminescence measurements on aliquots of the cell culture supernatant, without need for prior cell lysis. Lipoplexes were formulated in glucose 5% at N/P ratios of 1, 3, and 5, with increasing amounts of DOPE as a helper lipid. They were deposited onto cells in the presence of 10% serum and luciferase activity was measured after 24 h (Figure 3). […] The influence of the nature of the pendant hydrophobic arm was also examined.
To investigate the effect of serum on the gene delivery properties of the APL prodrugs, cells were treated with lipoplexes in the presence of an increasing concentration of serum (Figure 5). Two DNA doses were considered.
Figure 5 Transfection efficiency of pro-APLs ME12 (A), PE12 (B), and EE12 (C) as a function of serum content. Pro-APL/DNA complexes were prepared at N/P 3, with 1 molar eq. of DOPE. A549 cells (6,000 cells/well) were seeded into 96-well plates in 100 μL of culture medium containing 10% serum. Twenty-four hours later, cell supernatant was replaced with culture medium complemented with increasing amounts of serum (from 10 to 75%) just before adding the lipoplexes (0.2 and 0.4 μg of DNA per well; light and deep purple bars, resp.). Control (light blue bar) refers to basal bioluminescence measured in untreated cells. […] Statistical significance vs. control. ***p < 0.001, **p < 0.01, *p < 0.05.
Another data set deals with sheep RBC. Nature of the data set: Hemolytic activity, red blood cell leakage assay. The following applies: 37°C.
Details of data set [6]: method as in Yaseen et al., 2005. The following applies: Du Noüy ring method; ref Yaseen et al., 2005; cited from earlier work.
The conditions of data set [7]: Langmuir trough method, cited from earlier work.
A further data set relates to red blood cells (RBC). The following applies: cited from earlier work.
Setting [8] is: Homo sapiens, NCI-H292, H292, 24 h at 37°C.

Read-outs that look alike come from different tables or passages of the source.

Method for sheep RBC: To evaluate this hypothesis, the hemolytic activity of the APLs and pro-APLs was measured. Sheep RBC were incubated for 1 h with escalating doses of aqueous dispersion of the compounds at 37°C. At the end of the incubation period, hemoglobin leakage was determined spectrophotometrically.
Thus, in order to better characterize the hemolytic effect of the pro-APLs, the incubation period has been extended and release of hemoglobin was measured after 24 h.
Red blood cell (RBC) leakage assay was carried out according to a previously described procedure
(Evans et al, 2013). RBC were prepared from defibrinated sheep blood. Briefly, blood sample (5 mL) was centrifuged at 500 x g for 5 min. After removal of the yellow upper layer, an equal volume of

On to “3-((((((Dodecyloxy)carbonyl)oxy)ethoxy)(hexadecyloxy)phosphoryl)oxy)-N,N,N-trimethylpropan-1-aminium chloride [M C^′12]”, for which the “H120 (hydrolysis rate after a 120-h incubation period)” value was found to be 13% in data set [1] (pH 4.5) and 14% in data set [1] (pH 7.4). Besides, in data set [2], the “CMC (APLs) / CAC (pro-APLs)” value was found to be 2.0 ± 0.7 µM. For the same compound, the IC50 (as a rule, the midpoint of a concentration-inhibition curve) in the data set with A549 cells [3] is 48 ± 15 µM; in the data set on H292 cells (H292, 24 h at 37°C) it was 146 ± 37 µM; in the data set with 16HBE cells it was 66 ± 27 µM. Also, the “Particle size of lipoplexes” value in [4] was 91 ± 3 nm. Also, in the data set with A549 cells [5] (A549, pCMV-Gluc lipoplexes, 10% serum, 24 h), the “Transfection rate relative to MC12” value is “ca. 2 fold”.
`CCCCCCCCCCCCCCCCOP(=O)(OCC[N+](C)(C)C)OCOC(=O)CCCCCCCCCCC.[Cl-]` (stereo not drawn) [ME12, 2-((((Dodecanoyloxy)methoxy)(hexadecyloxy)phosphoryl)oxy)-N,N,N-trimethylethan-1-aminium chloride]: the “H120 (hydrolysis rate after a 120-h incubation period)” value is 3% in data set [1] (pH 4.5) and 20% in data set [1] (pH 7.4). For the same compound, the “CMC (APLs) / CAC (pro-APLs)” value in [2] came to 4.3 ± 2.5 µM. Moreover, the IC50 in the data set with A549 cells [3] (Homo sapiens) was found to be 39 ± 7 µM; in the data set with H292 cells (setting [8]) it was 52 ± 28 µM; in the data set with 16HBE cells (Homo sapiens) it was 69 ± 26 µM. Besides, in data set [4], the “Particle size of lipoplexes” value is on record as 178 ± 8 nm. Further, the “Serum content up to which significant transgene expression was mediated” value with A549 cells [5] (A549, N/P 3, 1 eq. DOPE, DNA dose 0.2 μg/well) is “up to 50 % serum”. Further, the “Serum content up to which transfection activity extended” value with A549 cells [5] (A549, N/P 3, 1 eq. DOPE, DNA dose 0.4 μg/well) was “up to 75 % serum”. Further, the “HA200 (hemolytic activity at 200 μM)” value with sheep RBC (1 h) was found to be 18.0 ± 1.2%; with sheep RBC (24 h), 103.2 ± 3.6%.
For `CCCCCCCCCCCCCCCCOP(=O)([O-])OCC[N+](C)(C)C` [Miltefosine, reference compound], the “CMC (APLs) / CAC (pro-APLs)” value was found to be 11.2 ± 2.3 µM in [2] and 11.2 µM in [2] (listed as miltefosine). Besides, the IC50 turned out to be 77 ± 15 µM with A549 cells [3] (Homo sapiens), 70 ± 9 µM with H292 cells (setting [8]) and 73 ± 8 µM in the data set on 16HBE cells (Homo sapiens). Besides, the CMC was 12 µM in data set [6] and 2.5 to 3.0 µM in [7] (ref Rakotomanga et al., 2004). Also, the concentration for 50% haemolysis (HC50) (commonly the concentration giving 50% haemolysis) in the data set on red blood cells (RBC) (depending on the hematocrit, ref Alonso and Alonso, 2016) was 34 to 51 µM; with red blood cells (RBC) (ref Petit et al., 2019) it was 41 µM. For the same compound, the “HA200 (hemolytic activity at 200 μM)” value in the data set on sheep RBC (1 h) is 90.8 ± 1.5%. Also, the “HC50 (concentration provoking 50% hemolysis)” value in the data set with sheep RBC (1 h) is 43 µM.
Turning to `CCCCCCCCCCCCCCCCCCOP(=O)([O-])OC1CC[N+](C)(C)CC1` [Perifosine, reference compound], the “CMC (APLs) / CAC (pro-APLs)” value is 4.4 ± 1.7 µM in [2] and 4.4 µM in data set [2] (listed as perifosine). In addition, the IC50 in the data set on A549 cells [3] (Homo sapiens) was determined as 127 ± 39 µM; with H292 cells (setting [8]), 77 ± 3 µM; with 16HBE cells (Homo sapiens), 116 ± 33 µM. In addition, the CMC in [7] (ref Mravljak et al., 2005) is 2.5 µM. In addition, in the data set with red blood cells (RBC) (24-h exposure to 5.4 μM, ref Egler and Lang, 2017), the Hemolysis entry is recorded as “ca. 30%”. In the data set on sheep RBC (1 h), the “HA200 (hemolytic activity at 200 μM)” value is given as 85.1 ± 4.0%. Also, the “HC50 (concentration provoking 50% hemolysis)” value in the data set with sheep RBC (1 h) came out at 46 µM.
